Measurements reported in article PMC7550284, “The functional cooperation of 5-HT1A and mGlu4R in HEK-293 cell line” (Pharmacological Reports, 2020).

Key:
mGlu4R [1] = experiment: Forskolin-induced cAMP accumulation in T-REx 293 cells expressing both 5-HT1A-HALO and mGlu4R-SNAP, L-glutamate response; assay type: cell-based, human; details: without tetracycline induction (−Tet); curve parameters impossible to determine
Method: (§1) The cell line was maintained in DMEM medium supplemented with 10% FBS (tetracycline free), 2 mM Glutamax I (Lonza,), 100 µg/mL Zeocin and 10 µg/mL blasticidin (Invitrogen). T-REx 293 cells were treated with a mixture of plasmids (0.1 µg pTet-SNAP-GRM4 and 0.9 µg pOG44) and GeneJuice transfection reagent according to the manufacturer’s instructions (Novagen). After 48 h, selection for the stably integrated plasmid with 100 µg/mL hygromycin B (Invitrogen) began. In parallel experiments, the HALO-5-HT1A plasmid was introduced into T-REx 293 cells or cells with the inducible expression of SNAP-GRM4 to generate a cell line that expressed both receptors. In the double expression system (as well as in other experiments), 5-HT1A was stably expressed, and mGlu4R expression was induced by tetracycline treatment (+ Tet; 0.75 µg/mL) (Fig. S3). One additional cell line was generated by cloning the 5-HT1A insert (BamHI/XhoI) into the pSNAPf vector ([…]).
(§2) Each experiment was performed three times (n = 3), and each data point was in triplicate. The curves for the data shown were fitted to a three-parameter logistic equation, allowing for the determination of IC50 values and Emax. For comparison of IC50 between the curves, t test was applied. The ONE way ANOVA and Tukey’s post hoc test were used for in vitro receptor interaction assays statistics.

5-HT1A receptor [2] = molecular target: T1, 5-HT1A receptor (Homo sapiens, UniProt P08908); experiment: Forskolin-induced cAMP accumulation (HTRF) in T-REx-293-h5-HT1A-SNAP cells; assay type: cell-based; details: cAMP assay, Fig. 1b
T1 construct: expressed in transfected cells
T1 sequence (P08908 1-422): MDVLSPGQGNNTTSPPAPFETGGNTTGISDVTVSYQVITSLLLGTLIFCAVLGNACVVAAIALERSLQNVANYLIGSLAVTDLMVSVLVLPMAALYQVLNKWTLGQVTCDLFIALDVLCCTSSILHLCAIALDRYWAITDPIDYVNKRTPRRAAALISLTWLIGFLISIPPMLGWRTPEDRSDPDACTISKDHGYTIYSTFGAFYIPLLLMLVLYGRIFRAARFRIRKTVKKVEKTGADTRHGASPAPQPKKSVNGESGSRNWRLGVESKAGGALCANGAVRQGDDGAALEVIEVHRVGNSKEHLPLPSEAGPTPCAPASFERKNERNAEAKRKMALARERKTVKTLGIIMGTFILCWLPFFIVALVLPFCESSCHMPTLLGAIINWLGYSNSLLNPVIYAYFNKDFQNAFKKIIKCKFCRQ
Method: as §1, §2

5-HT1A receptor [3] = molecular target: T1, 5-HT1A receptor; experiment: Forskolin-induced cAMP accumulation in T-REx 293 cells expressing both 5-HT1A-HALO and mGlu4R-SNAP, 5-HT1A agonist response; assay type: cell-based; details: +Tet
Method: as §1, §2

mGlu4R [4] = molecular target: T2, mGlu4R (Homo sapiens, UniProt Q14833); experiment: Forskolin-induced cAMP accumulation in T-REx 293 cells expressing both 5-HT1A-HALO and mGlu4R-SNAP, L-glutamate response; assay type: cell-based; details: SSZ 100 μM; +Tet
T2 construct: expressed in transfected cells
T2 sequence (Q14833 33-912): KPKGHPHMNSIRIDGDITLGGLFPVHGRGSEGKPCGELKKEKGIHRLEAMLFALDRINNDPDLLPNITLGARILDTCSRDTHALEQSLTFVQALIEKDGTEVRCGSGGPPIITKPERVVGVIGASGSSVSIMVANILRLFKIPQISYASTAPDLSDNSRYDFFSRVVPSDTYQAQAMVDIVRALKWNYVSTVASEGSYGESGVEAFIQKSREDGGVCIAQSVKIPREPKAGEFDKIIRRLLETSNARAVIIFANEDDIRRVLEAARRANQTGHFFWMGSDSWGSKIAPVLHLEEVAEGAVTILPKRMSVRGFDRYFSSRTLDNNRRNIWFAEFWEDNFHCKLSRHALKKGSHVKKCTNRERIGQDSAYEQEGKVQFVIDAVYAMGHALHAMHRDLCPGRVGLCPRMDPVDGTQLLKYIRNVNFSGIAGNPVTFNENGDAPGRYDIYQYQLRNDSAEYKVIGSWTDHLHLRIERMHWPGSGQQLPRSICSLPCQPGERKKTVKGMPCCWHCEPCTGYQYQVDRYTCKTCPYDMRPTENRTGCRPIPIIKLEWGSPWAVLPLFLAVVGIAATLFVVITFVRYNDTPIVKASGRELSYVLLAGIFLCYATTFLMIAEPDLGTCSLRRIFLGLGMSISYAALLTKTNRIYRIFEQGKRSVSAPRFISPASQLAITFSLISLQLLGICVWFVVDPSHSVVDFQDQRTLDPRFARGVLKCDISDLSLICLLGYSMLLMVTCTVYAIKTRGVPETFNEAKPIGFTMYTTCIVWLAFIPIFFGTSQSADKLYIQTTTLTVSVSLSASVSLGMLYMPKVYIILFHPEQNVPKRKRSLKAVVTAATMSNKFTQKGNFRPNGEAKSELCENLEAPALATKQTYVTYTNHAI
Method: as §1, §2

[5] = molecular target: T3, hmGlu4 receptor homodimer (Homo sapiens, UniProt Q14833); experiment: HTRF-FRET receptor interaction assay, mGlu4-SNAP homodimers (Snap-Tb/Snap-Green); assay type: cell-based; details: in presence of L-glutamate; VU0155041 10 μM, LY341495 100 µM
T3 construct: expressed in transfected cells
T3 sequence (Q14833 33-912): as above
Method: The intermolecular interaction was presented as a ratio (FRET/Snap-Tb) x10e^4.
A homogenous time-resolved FRET assay was used to analyze the interaction between receptors labeled with Snap-Tb and Snap-green. For each experiment, a group named “mix cells” (1:1) was added, which corresponded to a mixture of cells separately labeled with one substrate depending on the experimental procedure and mixed immediately before FRET measurement.

N[C@@H](CCC(=O)O)C(=O)O [L-glutamate]
Effect on forskolin-induced cAMP accumulation without induction of mGlu4 receptor expression (mGlu4R [1]): not effective

COc1ccccc1N1CCN(CC(C(=O)NC(C)(C)C)c2ccccc2)CC1 (stereo not drawn) [WAY100135]
Effect of antagonist on the agonist (R)-(+)-8-OH DPAT Emax (5-HT1A receptor [2]): totally abolished

CCCN(CCC)[C@@H]1CCc2cccc(O)c2C1 [(R)-(+)-8-OH DPAT, (R)-(+)-8-hydroxy-DPAT]
Effect on forskolin-stimulated cAMP accumulation after induction of mGlu4 receptor expression (5-HT1A receptor [3]): abolished

O=C(O)c1cc(/N=N/c2ccc(S(=O)(=O)Nc3ccccn3)cc2)ccc1O [Sulfasalazine, sulfasalazine]
Effect of sulfasalazine treatment on 5-HT1A activity in presence of mGlu4 receptors (5-HT1A receptor [3]; SSZ 100 μM, versus cells without SSZ): significantly enhanced
Effect of sulfasalazine treatment on the dose–response curve of glutamate (mGlu4R [4]): shifted the dose–response curve of glutamate to the left

O=C(Nc1cc(Cl)cc(Cl)c1)[C@H]1CCCC[C@H]1C(=O)O [VU0155041]
Effect on FRET signal / interaction between mGluR4 monomers [5]: enhanced interaction
